The results in this text go back to PubChem BioAssay AID324 (DTP/NCI, 2004).

Where “and” joins values, the source holds several entries; their conditions need not be identical. Identical values can stand only once. Toxic doses and inconclusive results are not listed.

The experiment relates to CD2F1 mice, AMSA-resistant P388 leukemia ip, median survival T/C. The experiment is described as follows: NCI In Vivo Anticancer Drug Screen. Data for tumor model P388 Leukemia resistant to AMSA; NSC 249992 (intraperitoneal) in CD2F1 (CDF1) mice. As to conditions: endpoint: median survival time, higher = longer survival. As for the experimental part: The antitumor activity of compounds was measured in mice bearing transplantable tumors. Survival or tumor size were measured and the results are expressed as the measurement made in the treated group (T) divided by the measurement made in the vehicle treated control group (C). The tumor model used in this assay is P388 Leukemia resistant to AMSA; NSC 249992 (intraperitoneal) in CD2F1 (CDF1) mice

Setting [1] is: dose: 3.89 mg/kg/injection, schedule: Q04DX003 (ip), vehicle: water.
Where [2] appears, read: dose: 6.48 mg/kg/injection, schedule: Q04DX003 (ip), vehicle: water.
The mark [3] stands for this setting: dose: 10.8 mg/kg/injection, schedule: Q04DX003 (ip), vehicle: water.
Setting [4] is: dose: 18.0 mg/kg/injection, schedule: Q04DX003 (ip), vehicle: water.
The mark [5] stands for this setting: dose: 30.0 mg/kg/injection, schedule: Q04DX003 (ip), vehicle: water.
Setting [6] is: dose: 21.6 mg/kg/injection, schedule: Q04DX003 (ip), vehicle: saline.
Setting [7] is: dose: 36.0 mg/kg/injection, schedule: Q04DX003 (ip), vehicle: saline.
Where [8] appears, read: dose: 60.0 mg/kg/injection, schedule: Q04DX003 (ip), vehicle: saline.
Where [9] appears, read: dose: 100.0 mg/kg/injection, schedule: Q04DX003 (ip), vehicle: saline.
The mark [10] stands for this setting: dose: 0.13 mg/kg/injection, schedule: Q04DX003 (ip), vehicle: water.
Where [11] appears, read: dose: 0.21 mg/kg/injection, schedule: Q04DX003 (ip), vehicle: water.
[12] abbreviates: dose: 0.36 mg/kg/injection, schedule: Q04DX003 (ip), vehicle: water.
Setting [13] is: dose: 0.6 mg/kg/injection, schedule: Q04DX003 (ip), vehicle: water.

On to `COc1cccc2c1C(=O)c1c(O)c3c(c(O)c1C2=O)C[C@@](O)(C(=O)CO)C[C@@H]3OC1CC([N+](C)(C)C)C(O)C(C)O1` (stereo not given in full), for which the T/C is 103 % of control under setting [1]; 111 % of control under setting [2]; 107 % of control under setting [3]; 108 % of control under setting [4]; 100 % of control under setting [5].
For `CN(C)c1ccc(Nc2c3ccccc3nc3ccccc23)cc1`, the T/C runs as follows: (dose: 13.0 mg/kg/injection, schedule: Q04DX003 (ip), vehicle: saline with Tween-80) 100 % of control; (dose: 21.6 mg/kg/injection, schedule: Q04DX003 (ip), vehicle: saline with Tween-80) 98 % of control; (dose: 25.9 mg/kg/injection, schedule: Q04DX003 (ip), vehicle: saline) 101 % of control; (dose: 36.0 mg/kg/injection, schedule: Q04DX003 (ip), vehicle: saline with Tween-80) 96 % of control; (dose: 43.2 mg/kg/injection, schedule: Q04DX003 (ip), vehicle: saline) 104 % of control; (dose: 60.0 mg/kg/injection, schedule: Q04DX003 (ip), vehicle: saline with Tween-80) 100 % of control. In addition, the T/C was 100 % of control (dose: 72.0 mg/kg/injection, schedule: Q04DX003 (ip), vehicle: saline) and 103 % of control (dose: 100.0 mg/kg/injection, schedule: Q04DX003 (ip), vehicle: saline with Tween-80).
As to `O=C1c2ccccc2C(=O)c2c(NCCNCCO)ccc(NCCNCCO)c21`, the T/C is 103 % of control (dose: 13.0 mg/kg/injection, schedule: Q04DX003 (ip), vehicle: saline); 103 % of control under setting [6]; 103 % of control under setting [7]; 108 % of control under setting [8]; 113 % of control under setting [9].
In the case of `CCCCC(=O)N(c1ccc(Nc2c3ccccc3nc3cc([N+](=O)[O-])ccc23)cc1)S(C)(=O)=O`, the T/C reads like this: under setting [3], 100 % of control; under setting [4], 96 % of control; under setting [5], 95 % of control; (dose: 50.0 mg/kg/injection, schedule: Q04DX003 (ip), vehicle: water) 99 % of control; (dose: 83.3 mg/kg/injection, schedule: Q04DX003 (ip), vehicle: water) 91 % of control.
For the compound `CC[C@@]1(O)C[C@H](OC2CC(N(C)C)C(OC3CC(O)C(OC4CCC(=O)C(C)O4)C(C)O3)C(C)O2)c2c(cc3c(c2O)C(=O)c2c(O)ccc(O)c2C3=O)[C@H]1C(=O)OC` (stereo not given in full), the T/C (dose: 4.32 mg/kg/injection, schedule: Q04DX003 (ip), vehicle: water) is 153 % of control and 158 % of control; the T/C (dose: 7.2 mg/kg/injection, schedule: Q04DX003 (ip), vehicle: water) was 123 % of control and 219 % of control.
With `CC[C@](O)(C(=O)O)c1cc2n(c(=O)c1CO)Cc1cc3ccccc3nc1-2`, the T/C by setting is: (dose: 18.0 mg/kg/injection, schedule: Q04DX003 (ip), vehicle: saline) 192 % of control; (dose: 30.0 mg/kg/injection, schedule: Q04DX003 (ip), vehicle: saline) 193 % of control; (dose: 50.0 mg/kg/injection, schedule: Q04DX003 (ip), vehicle: saline) 240 % of control.
For the compound `O=c1[nH]cc(F)c(=O)[nH]1`, the T/C is 155 % of control under setting [6], 165 % of control under setting [7], 168 % of control under setting [8] and 170 % of control under setting [9].
On to `COc1cccc2c1C(=O)c1c(O)c3c(c(O)c1C2=O)C[C@@](O)(C(C)=O)C[C@@H]3OC1CC(NCc2ccccc2)C(O)C(C)O1` (stereo not given in full), for which the T/C is 113 % of control under setting [2], 117 % of control under setting [3] and 104 % of control under setting [4].
Consider `CCC1(O)CC2CN(CCc3c([nH]c4ccccc34)C(C(=O)OC)(c3cc4c(cc3OC)N(C)C3C(O)(C(N)=O)C(O)C5(CC)C=CCN6CCC43C65)C2)C1` (stereo not given) (tested in a mixture with another compound), for which the T/C is, setting by setting: (dose: 0.5 mg/kg/injection, schedule: Q04DX003 (ip), vehicle: clinical formulation) 150 % of control; (dose: 0.83 mg/kg/injection, schedule: Q04DX003 (ip), vehicle: clinical formulation) 162 % of control.
Consider `C(=N/NC1=NCCN1)/c1c2ccccc2c(/C=N\NC2=NCCN2)c2ccccc12`, for which the T/C by setting is: (dose: 5.18 mg/kg/injection, schedule: Q04DX002 (ip), vehicle: saline) 121 % of control; (dose: 14.4 mg/kg/injection, schedule: Q04DX002 (ip), vehicle: saline) 123 % of control; (dose: 40.0 mg/kg/injection, schedule: Q04DX002 (ip), vehicle: saline) 123 % of control.
Consider `CC(=O)C1(O)Cc2c(O)c3c(c(O)c2C(OC2CC(N)C(O)C(C)O2)C1)C(=O)c1ccccc1C3=O` (stereo not given), for which the T/C reads like this: under setting [10], 111 % of control; under setting [11], 122 % of control; under setting [12], 124 % of control; under setting [13], 105 % of control.
On to `O=NN(CCCl)C(=O)NCCCl`, for which the T/C is 164 % of control (dose: 3.89 mg/kg/injection, schedule: Q04DX003 (ip), vehicle: saline + alcohol); 222 % of control (dose: 6.48 mg/kg/injection, schedule: Q04DX003 (ip), vehicle: saline + alcohol); 267 % of control (dose: 10.8 mg/kg/injection, schedule: Q04DX003 (ip), vehicle: saline + alcohol); 387 % of control (dose: 18.0 mg/kg/injection, schedule: Q04DX003 (ip), vehicle: saline + alcohol); 115 % of control (dose: 30.0 mg/kg/injection, schedule: Q04DX003 (ip), vehicle: saline + alcohol).
With `CC(=O)[C@]1(O)Cc2c(O)c3c(c(O)c2[C@@H](OC2CC(N)C(O)C(C)O2)C1)C(=O)c1c(O)cccc1C3=O` (stereo not given in full), the T/C under setting [10] is 122 % of control; the T/C under setting [11] is 115 % of control; the T/C under setting [12] was 109 % of control; the T/C under setting [13] is 124 % of control; the T/C (dose: 1.0 mg/kg/injection, schedule: Q04DX003 (ip), vehicle: water) is 97 % of control.
For `C[n+]1ccc(Nc2ccc(NC(=O)c3ccc(Nc4cc[n+](C)c5ccc(N)cc45)cc3)cc2)cc1`, the T/C is 155 % of control (dose: 1.73 mg/kg/injection, schedule: Q04DX003 (ip), vehicle: water); 154 % of control (dose: 4.8 mg/kg/injection, schedule: Q04DX003 (ip), vehicle: water); 182 % of control (dose: 8.0 mg/kg/injection, schedule: Q04DX003 (ip), vehicle: water).
As for `CC(=O)N(C)c1ccc(Nc2cc(C)[nH]c3ccc4ncnc4c23)cc1`, the T/C by setting is: (dose: 19.4 mg/kg/injection, schedule: Q04DX002 (ip), vehicle: saline) 101 % of control; (dose: 20.7 mg/kg/injection, schedule: Q04DX002 (ip), vehicle: saline) 104 % of control; (dose: 32.4 mg/kg/injection, schedule: Q04DX002 (ip), vehicle: saline) 100 % of control; (dose: 34.6 mg/kg/injection, schedule: Q04DX002 (ip), vehicle: saline) 112 % of control; (dose: 54.0 mg/kg/injection, schedule: Q04DX002 (ip), vehicle: saline) 119 % of control; (dose: 57.6 mg/kg/injection, schedule: Q04DX002 (ip), vehicle: saline) 117 % of control. Moreover, the T/C is 113 % of control (dose: 90.0 mg/kg/injection, schedule: Q04DX002 (ip), vehicle: saline) and 109 % of control (dose: 96.0 mg/kg/injection, schedule: Q04DX002 (ip), vehicle: saline).
Consider `COc1cccc2c1C(=O)c1c(O)c3c(c(O)c1C2=O)C[C@@](O)(C(=O)CO)C[C@@H]3OC1CC(NCc2ccccc2)C(O)C(C)O1` (stereo not given in full), for which the T/C is 123 % of control under setting [1] and 100 % of control under setting [5].
In the case of `CO[C@H](C(=O)[C@@H](O)[C@@H](C)O)[C@@H]1Cc2cc3cc(OC4CC(OC5CC(O)C(O)C(C)O5)C(O)C(C)O4)c(C)c(O)c3c(O)c2C(=O)[C@H]1OC1CC(OC2CC(OC3CC(C)(O)C(O)C(C)O3)C(O)C(C)O2)C(O)C(C)O1` (stereo not given in full), the T/C runs as follows: (dose: 0.13 mg/kg/injection, schedule: Q01DX005 (ip), vehicle: saline) 112 % of control; (dose: 0.22 mg/kg/injection, schedule: Q01DX005 (ip), vehicle: saline) 113 % of control; (dose: 0.36 mg/kg/injection, schedule: Q01DX005 (ip), vehicle: saline) 118 % of control.
